Data from patent publication US9770482B2, “Targeting the EGFR-SGLT1 interaction for cancer therapy” (The University of Houston System, priority 2013, dated 2017).
Entries after “also recorded” stand apart in the source; their conditions may differ. Values belong to the molecule of their own block, whether it stands above or below them. Peptide text beside a SMILES is read from it. * marks the point of attachment. Cbz = O=C(OCc1ccccc1)*

Tests used:
EGFR-SGLT1 interaction = molecular target: T1, EGFR-SGLT1 interaction (Homo sapiens, UniProt P00533); assay: Immunoprecipitation coupled Western blot of EGFR-HA and SGLT1-Flag interaction in co-transfected HEK293 cells; format: cell-based; conditions: WT-EGFR and SGLT1 co-transfected HEK293 cells; EGF 10 ng/ml or EGF plus AEE788 5 μM, 30-60 min; FIG. 3A
T1 construct: The full-length human EGFR was amplified with a forward primer EGFR-F; expressed in transfected cells; host or cells: HEK293

[1] = molecular target: T2, endogenous EGFR-SGLT1 interaction (Homo sapiens, UniProt P00533); assay: Immunoprecipitation coupled Western blot of endogenous EGFR and SGLT1 interaction in PC3 cells; format: cell-based; conditions: PC3 cells treated with EGF or AEE788; FIG. 3B
T2 construct: endogenous in cells; host or cells: PC3

SGLT1 [2] = assay: Western blot of SGLT1 level in SGLT1 and ΔAutoPhos-EGFR co-transfected HEK293 cells; format: cell-based, human; conditions: FIGS. 2C-2D
Description: In an embodiment, to determine whether proteasome is involved in loss of interaction with EGFR induced down-regulation of SGLT1, SGLT1 and ΔAutoPhos-EGFR co-transfected HEK293 cells can be treated with a proteasome inhibitor, such as but not limited to […]. For example, FIG. 2C illustrates a Western blot analysis of the effect of a proteasome inhibitor MG132 on the down-regulation of SGLT1 by ΔAutophos-EGFR. Actin may be used as a loading control. FIG. 2D, by way of example only, illustrates a densitometric quantification of bands in the Western blot of FIG. 2C. Asterisk marks indicate statistical significance between the linked representative groups from triplicate experiments.
HEK293 cells were transfected with plasmids expressing flagged SGLT1 alone or with indicated HA tagged EGFR constructs. After 24 hours of transfection, cells were washed in 1× phosphate buffered solution and lysed with RIPA buffer (50 mM Tris-HCl, pH 8.0, with 150 mM sodium chloride, 1.0% Igepal CA-630 (NP-40), 0.5% sodium deoxycholate, and 0.1% sodium dodecyl sulfate), supplemented with a protease inhibitors cocktail for 6 hours on a shaker at 4° C. The cell lysates were then centrifuged for 2 minutes at 12000× rpm. Supernatant were then incubated with sepharose protein A/G beads conjugated with anti-flag or anti-SGLT1 antibody for overnight at 4° C. […]

EGFR = assay: Western blot of EGFR level in PC3 cells; format: cell-based; conditions: FIG. 5B
Description: (§1) In another embodiment, a peptide can destabilize EGFR and SGLT1 proteins of cancer cells. FIG. 5A, by way of example only, illustrates an embodiment of a peptide, called ESD-01 (SEQ ID NO: 001), which can destabilize EGFR and SGLT1 proteins of cancer cells. In one embodiment, the ESD-01 peptide can be selected from the SGLT1 interacting domain of EGFR. In another embodiment, ESD-01 comprises amino acids 1049-1062 of a human EGFR protein (GenBank: AAH94761.1). In still another embodiment, the effects of ESD-01 on the stability of EGFR and SGLT1 in cultured cells (e.g, PC3, MDA-MB-231, and HCT116 cells) can be determined by Western blot analysis. […] In still another embodiment, the effects of ESD-01 on the survivability of cultured cancer cells (e.g, PC3, MDA-MB-231, and HCT116 cells) can be determined by trypan blue uptake assay.
(§2) For Western blot (WB) analysis, cells were lysed with RIPA buffer (150 mM NaCl, 50 mM Tris-HCl, pH 7.4, 0.1% SDS, 1% TritonX-100, 1 mM EDTA, 1 mM PMSF, 20 μg/ml aprotinin, 20 μg/ml leupeptin, 20 μg/ml pepstatine, 1% sodium deoxycholate, 1 mM NaF, 1 mM Na3VO4, in H2O). Proteins separated by 8% SDS-PAGE were transferred to PVDF membrane followed by blocking with 5% nonfat dry milk and then incubation with primary antibodies at optimized concentrations for overnight at 4° C. […]

SGLT1 [3] = assay: Western blot of SGLT1 level in PC3 cells; format: cell-based; conditions: FIG. 5B
Description: as §1, §2

PC3 cells = assay: MTT cell growth assay, PC3 cells; format: cell-based; conditions: phlorizin 50 μM with/without Gefitinib 10 μM or Erlotinib 10 μM, 48 hs, FIG. 4C
Protocol: (§3) It is well known that an increase in glucose levels can activate EGFR, that SGLT1 is over-expressed in prostate cancer tissues, and that prostate cancer is resistant to EGFR inhibitors. […] In an embodiment, SGLT1 and EGFR can synergistically promote prostate cancer growth. […] In one embodiment, the growth inhibitory effects of the treatments may be determined. […]
(§4) Cell growth was determined by 3-(4,5-dimethylthiazole-2-yl)-2,5-diphenyltetrazolium Bromide (MTT) assay in 96-well plates according to the protocol provided by the manufacture. […] Absorbance was measured by a MultiSkan plate reader (Thermo Fisher Scientific, NC) at 570 nm. […] Cell viability was determined by trypan blue uptake assay. The percentage of live cells were counted in areas (n=3 for each sample) randomly selected under 10× magnificence of triplicates. […]

LNCaP cells = assay: MTT cell growth assay, LNCaP cells; format: cell-based; conditions: phlorizin 50 μM with/without Gefitinib 10 μM or Erlotinib 10 μM, 48 hs, FIG. 4D
Protocol: as §3, §4

[4] = test system: prostate cancer PC3 cells; assay: Trypan blue uptake assay, PC3 cells; format: cell-based; conditions: 100 μM for 24 hours, FIG. 6
Description: as §1
(§5) Cell growth was determined by 3-(4,5-dimethylthiazole-2-yl)-2,5-diphenyltetrazolium Bromide (MTT) assay in 96-well plates according to the protocol provided by the manufacture. Briefly, 5000 cells suspended in 100 μL medium were seeded in each well of a 96-well plate. […] Absorbance was measured by a MultiSkan plate reader (Thermo Fisher Scientific, NC) at 570 nm. […] Cell viability was determined by trypan blue uptake assay. The percentage of live cells were counted in areas (n=3 for each sample) randomly selected under 10× magnificence of triplicates.

[5] = test system: prostate cancer Du145 cells; assay: Trypan blue uptake assay, Du145 cells; format: cell-based; conditions: 100 μM for 24 hours, FIG. 6
Description: as §1, §5

[6] = test system: breast cancer MDA-MB-231 cells; assay: Trypan blue uptake assay, MDA-MB-231 cells; format: cell-based; conditions: 100 μM for 24 hours, FIG. 6
Description: as §1, §5

[7] = test system: colon cancer HCT116 cells; assay: Trypan blue uptake assay, HCT116 cells; format: cell-based; conditions: 100 μM for 24 hours, FIG. 6
Description: as §1, §5

[8] = test system: non-cancerous HEK293 cells; assay: Trypan blue uptake assay, HEK293 cells; format: cell-based; conditions: FIG. 6
Description: as §1, §5

cancer cells = assay: Killing of cancer cells in vitro, L- versus D-amino acid peptide; format: cell-based
[9] = molecular target: T3, wild type EGFR, HA tagged (human, full length, C-terminal HA tag) (human, UniProt P00533 25-1210); assay: co-IP of SGLT1-Flag, Western blot for EGFR-HA, HEK293 cells treated with EGF or EGF plus AEE788
T3 construct: whole, on cells; Expressed by transient transfection in HEK293 cells; tested in RIPA lysates by co-immunoprecipitation; also called WT; WT-EGFR; not shown: C-terminal HA tag

[10] = molecular target: T4, endogenous EGFR of PC3 cells (UniProt P00533 25-1210, limits assumed); assay: co-IP of endogenous SGLT1 (anti-SGLT1), Western blot for EGFR and pEGFR, PC3 cells treated with EGF or AEE788
T4 construct: whole, on cells; Co-precipitated from PC3 lysates with endogenous SGLT1

Molecule: CCN1CCN(Cc2ccc(-c3cc4c(N[C@H](C)c5ccccc5)ncnc4[nH]3)cc2)CC1 [AEE788]
effect on EGFR-SGLT1 interaction (EGFR co-immunoprecipitated with SGLT1) (EGFR-SGLT1 interaction): neither EGF nor AEE788 significantly affects the EGFR-SGLT1 interaction
effect on endogenous EGFR-SGLT1 interaction [1]: neither EGF nor AEE788 affect the EGFR-SGLT1 interaction

Molecule: CC(C)C[C@@H](C=O)NC(=O)[C@H](CC(C)C)NC(=O)[C@H](CC(C)C)NC(=O)OCc1ccccc1 [MG132] (Cbz-Leu-Leu-Leu-aldehyde)
inhibition of down-regulation of SGLT1 (SGLT1 [2]): can inhibit the down-regulation of SGLT1
inhibition of ESD-01 induced EGFR down-regulation (EGFR; ESD-01 200 μM for 6 hours): inhibited
inhibition of ESD-01 induced SGLT1 down-regulation (SGLT1 [3]; ESD-01 200 μM for 6 hours): inhibited

Molecule: O=C(CCc1ccc(O)cc1)c1c(O)cc(O)cc1O[C@@H]1O[C@H](CO)[C@@H](O)[C@H](O)[C@H]1O [Phlorizin]
sensitization to growth inhibitory effects of Gefitinib and Erlotinib (PC3 cells): sensitizes; also recorded: significantly sensitize
sensitization to growth inhibitory effects of Gefitinib and Erlotinib (LNCaP cells): sensitizes; also recorded: significantly sensitize

Molecule: ESD-01: synthesized peptide from the SGLT1 interacting domain of EGFR; comprises amino acids 1049-1062 of a human EGFR protein (GenBank: AAH94761.1) (LVWKQSCSSTSSTH; listed as Homo sapiens)
EGFR level (EGFR; 200 μM for 6 hours): significantly down-regulates
SGLT1 level (SGLT1 [3]; 200 μM for 6 hours): significantly down-regulates
survivability [4]: significantly reduces the survivability
survivability [5]: significantly reduces the survivability
survivability [6]: significantly reduces the survivability
survivability [7]: significantly reduces the survivability
survivability [8]: cannot reduce the survivability
killing cancer cells in vitro, peptide made of L-amino acids versus D-amino acids (cancer cells): equally effective

binding result [9]: binds
B1: flag tagged human SGLT1 (sodium/glucose co-transporter 1) (other, UniProt P13866 1-664, looked up)
chain: MDSSTWSPKTTAVTRPVETHELIRNAADISIIVIYFVVVMAVGLWAMFSTNRGTVGGFFLAGRSMVWWPIGASLFASNIGSGHFVGLAGTGAASGIAIGGFEWNALVLVVVLGWLFVPIYIKAGVVTMPEYLRKRFGGQRIQVYLSLLSLLLYIFTKISADIFSGAIFINLALGLNLYLAIFLLLAITALYTITGGLAAVIYTDTLQTVIMLVGSLILTGFAFHEVGGYDAFMEKYMKAIPTIVSDGNTTFQEKCYTPRADSFHIFRDPLTGDLPWPGFIFGMSILTLWYWCTDQVIVQRCLSAKNMSHVKGGCILCGYLKLMPMFIMVMPGMISRILYTEKIACVVPSECEKYCGTKVGCTNIAYPTLVVELMPNGLRGLMLSVMLASLMSSLTSIFNSASTLFTMDIYAKVRKRASEKELMIAGRLFILVLIGISIAWVPIVQSAQSGQLFDYIQSITSYLGPPIAAVFLLAIFWKRVNEPGAFWGLILGLLIGISRMITEFAYGTGSCMEPSNCPTIICGVHYLYFAIILFAISFITIVVISLLTKPIPDVHLYRLCWSLRNSKEERIDLDAEEENIQEGPKETIEIETQVPEKKKGIFRRAYDLFCGLEQHGAPKMTEEEEKAMKMKMTDTSEKPLWRTVLNVNGIILVTVAVFCHAYFA
notes: whole, on cells; Plasmid described in Blessing et al. 2012; Expressed in HEK293 cells and immunoprecipitated with anti-flag antibody; also called SGLT1-Flag; flagged SGLT1; not shown: Flag tag

binding result [10]: binds
B2: endogenous SGLT1 of PC3 cells (other, UniProt P13866 1-664, looked up)
chain: MDSSTWSPKTTAVTRPVETHELIRNAADISIIVIYFVVVMAVGLWAMFSTNRGTVGGFFLAGRSMVWWPIGASLFASNIGSGHFVGLAGTGAASGIAIGGFEWNALVLVVVLGWLFVPIYIKAGVVTMPEYLRKRFGGQRIQVYLSLLSLLLYIFTKISADIFSGAIFINLALGLNLYLAIFLLLAITALYTITGGLAAVIYTDTLQTVIMLVGSLILTGFAFHEVGGYDAFMEKYMKAIPTIVSDGNTTFQEKCYTPRADSFHIFRDPLTGDLPWPGFIFGMSILTLWYWCTDQVIVQRCLSAKNMSHVKGGCILCGYLKLMPMFIMVMPGMISRILYTEKIACVVPSECEKYCGTKVGCTNIAYPTLVVELMPNGLRGLMLSVMLASLMSSLTSIFNSASTLFTMDIYAKVRKRASEKELMIAGRLFILVLIGISIAWVPIVQSAQSGQLFDYIQSITSYLGPPIAAVFLLAIFWKRVNEPGAFWGLILGLLIGISRMITEFAYGTGSCMEPSNCPTIICGVHYLYFAIILFAISFITIVVISLLTKPIPDVHLYRLCWSLRNSKEERIDLDAEEENIQEGPKETIEIETQVPEKKKGIFRRAYDLFCGLEQHGAPKMTEEEEKAMKMKMTDTSEKPLWRTVLNVNGIILVTVAVFCHAYFA
notes: whole, on cells; Immunoprecipitated from PC3 lysates with anti-SGLT1 antibody
